Here are results for twelve compounds from ChEMBL document CHEMBL1140060, “Design, synthesis and biological evaluation of dihydronaphthalene and benzosuberene analogs of the combretastatins as inhibitors of tubulin polymerization in cancer chemotherapy” (Bioorg Med Chem, 2008).

A word on the GI50: it is the concentration that inhibits growth by half. A lower GI50 goes with more potent growth inhibition. By IC50 is commonly meant the concentration that gives 50% inhibition.

SMILES strings stand for the structures.

For assay [1], the system named is DU-145. Put plainly: Growth inhibition of human DU145 after 48 hrs by SRB assay. The class given is functional. Conditions: DU-145, 48 h. (In SRB staining, fixed cells bind dye roughly in proportion to their protein.)
Assay [2] can be described thus: Inhibition of calf brain tubulin polymerization. On the set-up: species or system Bos taurus.
Assay [3] deals with NCI-H460. Put plainly: Growth inhibition of human NCI-H460 after 48 hrs by SRB assay. The class given is functional. The settings on record: NCI-H460, 48 h.
In assay [4] the test system is SK-OV-3. Put plainly: Growth inhibition of human SK-OV-3 after 48 hrs by SRB assay. The class given is functional. Conditions: SK-OV-3, 48 h.

With `COc1ccc(C(=O)C2=CCCCc3c2cc(OC)c(OC)c3OC)cc1O`, the GI50 in assay [1] and in assay [3] was above 10000 nM throughout. The IC50 in assay [2] was above 40000 nM.
Take `COc1ccc(C(=O)C2=CCCc3c2cc(OC)c(OC)c3OC)c(O)c1O`: the GI50 in assay [1] was found to be 3400 nM; in assay [4] it was 1400 nM; in assay [3] it was 2800 nM. Further, the IC50 in assay [2] is above 40000 nM.
For `COc1ccc2c(c1)CCCC=C2c1cc(OC)c(OC)c(OC)c1`, the 50% growth inhibitory concentration (GI50) in assay [1] stood at 27 nM; in assay [4], 52 nM; in assay [3], 51 nM. In assay [2], this compound showed an IC50 of 1400 nM.
Regarding `COc1ccc2c(c1O)CCCC(c1cc(OC)c(OC)c(OC)c1)=C2`, the GI50 in assay [1] stood at 440 nM; in assay [4], 270 nM; in assay [3], 1200 nM. Also, the IC50 in assay [2] is above 40000 nM.
On to `COc1ccc(C(=O)C2=CCCCc3c2cc(OC)c(OC)c3OC)c(O)c1O`, for which the GI50 in assay [1] and in assay [3] was above 10000 nM in each case. In addition, in assay [2], the IC50 was above 40000 nM.
For the compound `COc1ccc2c(c1)CCCC(c1cc(OC)c(OC)c(OC)c1)=C2`, the GI50 came out at 550 nM in assay [1], 440 nM in assay [4] and 470 nM in assay [3]. The IC50 in assay [2] was above 40000 nM.
On to `COc1ccc(C(=O)C2=CCCc3c2cc(OC)c(OC)c3OC)cc1O`, for which the GI50 worked out at 3100 nM in assay [1] and 6000 nM in assay [3]. In addition, the IC50 in assay [2] was 24000 nM.
On to `COc1cc2c(cc1O)C(=O)C1c3cc(OC)c(OC)c(OC)c3CCC21` (stereo not given), for which the GI50 in assay [1] and in assay [3] was above 10000 nM throughout. This compound showed an IC50 in assay [2] above 40000 nM.
In the case of `COc1ccc(CC2CCCCc3c2cc(OC)c(OC)c3OC)c(O)c1O` (stereo not given), the GI50 in assay [1] and in assay [3] was above 10000 nM in each case. In addition, the IC50 in assay [2] was 7400 nM.
`COc1ccc2c(c1O)CCCC=C2c1cc(OC)c(OC)c(OC)c1`: the results for the GI50 in assay [1], in assay [4] and in assay [3] were 0.0032 nM, below 0.03 nM and 0.028 nM, respectively. Moreover, 1700 nM corresponded to half-maximal inhibition in assay [2] (IC50).
`COc1ccc(/C=C\c2cc(OC)c(OC)c(OC)c2)cc1O` [COMBRETASTATIN A4]: the GI50 in assay [1] came out at 2 nM; in assay [4], 0.13 nM; in assay [3], 2 nM.
For the compound `COc1ccc(/C=C\c2cc(OC)c(OC)c(OC)c2)c(O)c1O` [COMBRETASTATIN A-1], the GI50 in assay [1] was found to be 510 nM; in assay [3], 2200 nM.
